Data: the supplement of paper PMC13380429

Columns and labels:
[1] = test system: A549-ACE2 infected with SARS-CoV-2; test: cell count relative to DMSO; higher = less toxic; conditions: 24 h
[2] = test system: Caco-2; test: cell viability relative to DMSO; higher = less toxic; conditions: 72 h
[3] = test system: Calu-3; test: as above; conditions: 72 h
[4] = test system: HepG2; test: as above; conditions: 72 h
[5] = test system: U2OS; test: as above; conditions: 72 h
[6] = test system: Vero E6; test: as above; conditions: 72 h
[7] = test system: A549-ACE2 infected with SARS-CoV-2; test: SARS-CoV-2 infection rate relative to DMSO; higher = more infection; conditions: 24 h
[8] = test system: A549-ACE2; test: phospholipidosis EC50; higher = less potent phospholipidosis inducer
[9] = test system: A549-ACE2; test: drug-induced phospholipidosis relative to tamoxifen; higher = more phospholipidosis
[10] = test system: A549-ACE2 infected with SARS-CoV-2; test: morphology score (similarity to uninfected cells); higher = more like uninfected cells; conditions: 24 h
[11] = test system: Caco-2; test: relative viability EC50 (midpoint between 100% and the lowest measured viability); higher = less toxic; conditions: 72 h
[12] = test system: Calu-3; test: as above; conditions: 72 h
[13] = test system: HepG2; test: as above; conditions: 72 h
[14] = test system: U2OS; test: as above; conditions: 72 h
[15] = test system: Vero E6; test: as above; conditions: 72 h
[16] = test system: Caco-2; test: drug sensitivity score (DSS) for viability; higher = more toxic; extreme values may be limits of the assay; conditions: 72 h
[17] = test system: Calu-3; test: as above; conditions: 72 h
[18] = test system: HepG2; test: as above; conditions: 72 h
[19] = test system: U2OS; test: as above; conditions: 72 h
[20] = test system: Vero E6; test: as above; conditions: 72 h

Clc1ccc2c(c1)N=C(N1CCNCC1)c1ccccc1N2 [desmethylclozapine]
Conditions	SARS-CoV-2 infection rate [%]	cell count [%]	cell viability [%]	morphology score	phospholipidosis EC50 [µM]
[1], 0.3 µM	–	100	–	–	–
[1], 3 µM	–	112	–	–	–
[1], 10 µM	–	115	–	–	–
[1], 30 µM	–	121	–	–	–
[2], 1 nM	–	–	88	–	–
[2], 10 nM	–	–	94.2	–	–
[2], 100 nM	–	–	92.9	–	–
[2], 1000 nM	–	–	98.5	–	–
[2], 10000 nM	–	–	99.1	–	–
[3], 1 nM	–	–	104	–	–
[3], 10 nM	–	–	114	–	–
[3], 100 nM	–	–	104	–	–
[3], 1000 nM	–	–	116	–	–
[3], 10000 nM	–	–	91.8	–	–
[4], 1 nM	–	–	97.3	–	–
[4], 10 nM	–	–	105	–	–
[4], 100 nM	–	–	96.8	–	–
[4], 1000 nM	–	–	104	–	–
[4], 10000 nM	–	–	87.7	–	–
[5], 1 nM	–	–	106	–	–
[5], 10 nM	–	–	103	–	–
[5], 100 nM	–	–	100	–	–
[5], 1000 nM	–	–	102	–	–
[5], 10000 nM	–	–	97.6	–	–
[6], 1 nM	–	–	103	–	–
[6], 10 nM	–	–	107	–	–
[6], 100 nM	–	–	94.2	–	–
[6], 1000 nM	–	–	102	–	–
[6], 10000 nM	–	–	93	–	–
[7], 0.3 µM	96	–	–	–	–
[7], 3 µM	62	–	–	–	–
[7], 10 µM	28	–	–	–	–
[7], 30 µM	13	–	–	–	–
[8], 24 h	–	–	–	–	6.54
[8], 48 h	–	–	–	–	6.43
[8], 72 h	–	–	–	–	8.34
[10], 0.3 µM	–	–	–	0.09	–
[10], 3 µM	–	–	–	0.63	–
[10], 10 µM	–	–	–	0.76	–
[10], 30 µM	–	–	–	0.73	–

drug-induced phospholipidosis [%], [9]
Conditions	0.3 µM	0.833333 µM	3.33333 µM	6.66667 µM	10 µM	30 µM
24 h	3.47	2.91	27	53.9	65.2	91.3
48 h	4.09	3.86	21.2	55.4	70.7	95.8
72 h	4.5	2.24	18.3	49.2	76.1	116

Conditions	drug sensitivity score	relative viability EC50 [µM]
[11]	–	> 10
[12]	–	> 10
[13]	–	> 10
[14]	–	> 10
[15]	–	> 10
[16]	0	–
[17]	0	–
[18]	0	–
[19]	0	–
[20]	0	–

Oc1ccc2c(c1)CC[C@H](c1ccccc1)[C@@H]2c1ccc(OCCN2CCCC2)cc1 [lasofoxifene]
Conditions	SARS-CoV-2 infection rate [%]	cell count [%]	cell viability [%]	morphology score	phospholipidosis EC50 [µM]
[1], 0.1 µM	–	105	–	–	–
[1], 0.3 µM	–	102	–	–	–
[1], 1 µM	–	106	–	–	–
[1], 3 µM	–	120	–	–	–
[2], 1 nM	–	–	101	–	–
[2], 10 nM	–	–	106	–	–
[2], 100 nM	–	–	97.5	–	–
[2], 1000 nM	–	–	100	–	–
[2], 10000 nM	–	–	60.1	–	–
[3], 1 nM	–	–	88.7	–	–
[3], 10 nM	–	–	96.6	–	–
[3], 100 nM	–	–	97.6	–	–
[3], 1000 nM	–	–	95.9	–	–
[3], 10000 nM	–	–	3.8	–	–
[4], 1 nM	–	–	93.4	–	–
[4], 10 nM	–	–	97.3	–	–
[4], 100 nM	–	–	106	–	–
[4], 1000 nM	–	–	93.8	–	–
[4], 10000 nM	–	–	27.6	–	–
[5], 1 nM	–	–	105	–	–
[5], 10 nM	–	–	99.3	–	–
[5], 100 nM	–	–	102	–	–
[5], 1000 nM	–	–	95	–	–
[5], 10000 nM	–	–	69.3	–	–
[6], 1 nM	–	–	99.5	–	–
[6], 10 nM	–	–	103	–	–
[6], 100 nM	–	–	103	–	–
[6], 1000 nM	–	–	102	–	–
[6], 10000 nM	–	–	61.2	–	–
[7], 0.1 µM	98	–	–	–	–
[7], 0.3 µM	95	–	–	–	–
[7], 1 µM	78	–	–	–	–
[7], 3 µM	40	–	–	–	–
[8], 24 h	–	–	–	–	2.32
[8], 48 h	–	–	–	–	2.82
[8], 72 h	–	–	–	–	3
[10], 0.1 µM	–	–	–	0.1	–
[10], 0.3 µM	–	–	–	0.07	–
[10], 1 µM	–	–	–	0.48	–
[10], 3 µM	–	–	–	0.72	–

drug-induced phospholipidosis [%], [9]
Conditions	0.3 µM	0.833333 µM	3.33333 µM	6.66667 µM	10 µM
24 h	8.45	22	81.6	102	112
48 h	7.62	12.5	79.3	91.7	119
72 h	6.02	12	69	83.8	120

Conditions	drug sensitivity score	relative viability EC50 [µM]
[12]	–	2.84
[13]	–	2.46
[16]	2	–
[17]	5.9	–
[18]	5	–
[19]	2.2	–
[20]	1.8	–
